# Source: patent publication US8242115B2, “Materials and methods to potentiate cancer treatment” (Luitpold Pharmaceuticals, Inc., priority 2000, dated 2012)
# Columns and labels:
# [1] = Pharmacokinetic analysis after subcutaneous administration; assay type: in vivo, mice
# [2] = biological target: T1, human DNA-PK (Homo sapiens, UniProt P78527); assay: Standard DNA-PK assay (p53 peptide phosphorylation); assay type: biochemical; details: read-out: IC50 (nM) DNA-PK Assay
# T1 construct: The frozen HeLa cell pellet was thawed at 37° C. and immediately centrifuged; endogenous in cells; host or cells: HeLa S3 cells (ATCC CCL-2.2); Endogenous enzyme purified via S100-2 fraction, Q-Sepharose FF and SP-Sepharose FF (fraction IV)
# Experimental: Reactions were carried out at room temperature. Reactions were started by addition of ATP and stopped by application to phosphocellulose paper. Reaction products spotted onto phosphocellulose paper were washed five times with a total volume of at least 250 mL 10% acetic acid or 150 mM phosphoric acid. The paper was air dried and radioactivity was determined in a Beckman LS6000IC scintillation counter.
# [3] = tested on: HCT116 cells (human colon carcinoma) xenograft tumors; assay: Animal tumor model, drug plus γ-radiation; assay type: in vivo, athymic BALB/c (nu/nu) mice; parameters: tumor growth with radiation plus drug: dose or concentration left out as unconfirmed; details: 250 rad plus drug once daily for five days
# Experimental: HCT116 cells (human colon carcinoma) were used to propagate xenograft tumors in 6-8 week old female athymic BALB/c (nu/nu) mice. Mice were maintained in a laminar airflow cabinet under pathogen-free conditions and fed sterile food and water ad libitum. HCT116 cells were grown to subconfluence in McCoy's media supplemented with 10% FBS, 100 U/mL penicillin, 100 μg/mL streptomycin, and 1.5 mM L-glutamine in a 5% CO2 humidified environment. Single cell suspensions were prepared in CMF-PBS (0.9 mM KCl, 2.7 mM KH2PO4, 13.8 mM NaCl, pH 7.5), and cell concentration adjusted to 4×10^7 cells/mL. Mice were inoculated subcutaneously (s.c.) on the right flank or right leg with a total of 4×10^6 cells (100 μL).
# Mice were randomized (5 mice/group) into four treatment groups and used when tumors reached a weight of 75 to 100 mg (usually 7 to 11 days post-inoculation). Tumors were measured with vernier calipers and tumor weights were estimated using the empirically-derived formula below. Tumor weight(mg)=tumor length(mm)×tumor width(mm)^2/3.3. […] Tumor size was monitored every other day for the duration of the experiment.
# [4] = tested on: Colon carcinoma cells (HCT116)
# [5] = tested on: human colon carcinoma cell line HCT116; assay: cells; assay type: cell-based
# Experimental: Cells plated at a density of 5,000 to 20,000 per well in 96-well microtiter plates were grown in RMPI 1640 containing 10% FBS, 100 U/mL penicillin and 100 μg/mL streptomycin, for 18 h at 37° C. in a humidified incubator with 5% CO2. Cells tested included ACHN, 786-0, HCT-116, SW620, SK-MEL-5, SK-MEL-28, A549, H322, OVCAR-3, SK-OV-3, MCF-7, MDA-MB-231, MOLT4, HL60, SNB-19, PC-3. Cells were treated with media containing chemotherapeutic drugs alone or with media containing chemotherapeutic drugs and a DNA-PK inhibitor of the invention, 1-(2-hydroxy-4-morpholin-4-yl-phenyl)-ethanone. Cells were incubated for two days before growth was measured using a tetrazolium dye assay (MTS). Chemotherapeutic drugs included bleomycin etoposide, vinblastine, doxorubicin, paclitaxel, cisplatin, chlorambucil, cyclophosphamide, 5-fluorouracil, cytosine-arabinoside, 6-mercaptoguanine and methotrexate (all purchased from Sigma). The drug concentration necessary to inhibit cell growth to 50% of untreated control cells was defined as the GI50.
# [6] = tested on: MDA-MB231 (human breast carcinoma) cells; assay: DNA double-strand break repair assay (pulse field electrophoresis); assay type: cell-based; details: 25 Gy; concentrations which enhanced radiation induced cell killing
# Experimental: To further determine the cellular effect of DNA-PK inhibitors, an assay to measure chromosomal discontinuities was employed. Ionizing radiation induces chromosomal DNA double-strand breaks. Following high dose radiation, chromosomes can be extracted from cells and fractionated by pulse field electrophoresis to distinguish chromosomal fragments from intact larger chromosomes. Using this technique, the activity of DNA-PK inhibitors was measured.
# MDA-MB231 (human breast carcinoma) cells were seeded onto T25 flasks with RPMI1640+10% FBS, 2 mM L-glutamine, penicillin G 100 U/ml-streptomycin sulfate 10 μg/ml, 1 mM Na pyruvate. When confluent, media was removed and replaced with media containing DNA-PK inhibitor or vehicle. Cells were incubated at 37° C. for 1 hr in a humidified chamber with 5% CO2. Media then was removed and flasks were filled with ice-cold D-PBS and either: (a) processed immediately; (b) irradiated (25 Gy in a ^137Cs Mark I irradiator at a flux of 335 rad/min) and processed immediately; (c) irradiated and incubated for 2 hr in complete RPMI1640+vehicle at 37° C. (in humidified 5% CO2 atmosphere to allow for DNA repair), or (d) irradiated and incubated for 2 hr in complete RPMI1640+DNA-PK inhibitor compound. […] Chromosomal DNA was visualized with SYBR-Gold (Molecular probes # S-11494) and the fluorescent image quantified on the STORM 860 (Molecular Dynamics).
smiles,measurement,setting,value
"CC(=O)c1ccc(N2CCOCC2)cc1O [Example 34, 1-(2-Hydroxy-4-morpholin-4-yl-phenyl)-ethanone]",duration of high plasma concentration,[1],remained high for about one hour
same,IC50,[2],120 nM
same,tumor growth with radiation plus drug,[3],no increase in tumor growth
same,effect of drug alone on cell division,[4],no effect on cell division
same,enhancement of etoposide LD50,[4],15 fold
same,enhancement of etoposide LD90,[4],3 fold
same,radiation LD50 lower than in the absence of drug,[4]; 200 μM,4 fold
same,radiation LD90 lower than without drug,[4]; 200 μM,4 fold
same,sensitivity of HCT116 to killing by γ-radiation,[4]; 200 μM,increased the sensitivity
same,radiation dosage which kills 50% of the cells (LD50) in the presence of drug,"[4]; 200 μM, 150 rad without drug",35 rad
same,radiation dose that kills 90% of the cells (LD90) with drug,"[4]; 200 μM, 410 rad without drug",100 rad
same,"D0, slope of the survival curve, with drug",[4]; 150 rad without drug,50 rad
same,GI50 (bleomycin) reduced,"[5]; 100 μM inhibitor, two days",7 fold
same,potentiation of growth inhibitory effects of agents that do not induce DNA dsbs,"[5]; vinblastine, doxorubicin, paclitaxel, cisplatin, cyclophosphamide, 5-fluorouracil, cytosine-arabinoside, 6-mercaptoguanine, methotrexate",did not potentiate
same,chlorambucil GI50 reduced,"[5]; with inhibitor, two days",10 fold
same,etoposide GI50 reduced,"[5]; with inhibitor, two days",10 fold
same,chromosomal DNA double-strand break repair,[6],inhibited DNA double-strand break repair
